For 31 compounds, IC50 results are on record in patent publication US9073940B2, “Tricyclic pyrazol amine derivatives” (MERCK SERONO SA, priority 2009, dated 2015).

Structures are written as SMILES. Structures can show the parent of a compound that is named as a salt.

The test system of the assay is 4 PI3K isoforms (Human recombinant GST-PI3K). As to the kind of experiment: PI3K scintillation proximity assay, best IC50 obtained with the four isoforms (alpha, beta, delta, gamma). The conditions noted are these: best IC50 obtained with the four isoforms of PI3K; read-out: Best potency measured on the 4 PI3K isoforms. The format is biochemical. Background: SPA uses beads or plates that emit light when radiolabelled molecules are held near them.
Consider `O=C(c1nn(-c2cccc(CN3CCCC(F)(F)C3)c2)c2c1CS(=O)(=O)c1ccccc1-2)N1CCOCC1` [Example 244, 1-{3-[(3,3-Difluoropiperidin-1-yl)methyl]phenyl}-3-(morpholin-4-ylcarbonyl)-1,4-dihydrothiochromeno[4,3-c]pyrazole 5,5-dioxide], for which the IC50 came out at 1540 nM.
The same measure for `CC(C)CCOC1CCN(Cc2ccc(-n3nc(C(=O)N4CCOCC4)c4c3-c3ccccc3S(=O)(=O)C4)cc2)C1` (stereo not shown) [Example 233, 1-(4-{[3-(3-Methylbutoxy)pyrrolidin-1-yl]methyl}phenyl)-3-(morpholin-4-ylcarbonyl)-1,4-dihydrothiochromeno[4,3-c]pyrazole 5,5-dioxide]: 167 nM; for `O=C(c1nn([C@@H]2CCN(CCC3CCOCC3)C2)c2c1CS(=O)(=O)c1c(F)cccc1-2)N1CCOCC1` (single isomer, unassigned) [Example 356, 6-fluoro-3-(morpholin-4-ylcarbonyl)-1-{1-[2-(tetrahydro-2H-pyran-4-yl)ethyl]pyrrolidin-3-yl}-1,4-dihydrothiochromeno[4,3-c]pyrazole 5,5-dioxide hydrochloride salt]: 1690 nM.
As for `O=C(c1nn(C2CN(CCN3CCOCC3)C2)c2c1CS(=O)(=O)c1ccccc1-2)N1CCOCC1` [Example 407, 3-(Morpholin-4-ylcarbonyl)-1-[1-(2-morpholin-4-ylethyl)azetidin-3-yl]-1,4-dihydrothiochromeno[4,3-c]pyrazole 5,5-dioxide], the IC50 turned out to be 236 nM.
As for `COCCN1CCC(n2nc(C(=O)N3CCOCC3)c3c2-c2ccccc2S(=O)(=O)C3)C1` (stereo not shown) [Example 255, 1-[1-(2-Methoxyethyl)pyrrolidin-3-yl]-3-(morpholin-4-ylcarbonyl)-1,4-dihydrothiochromeno[4,3-c]pyrazole 5,5-dioxide], the IC50 was determined as 1480 nM.
As to `COCCN1CCC[C@@H](n2nc(C(=O)N3CCOCC3)c3c2-c2ccccc2S(=O)(=O)C3)C1` (single isomer, unassigned) [Example 347, 1-[1-(2-methoxyethyl)piperidin-3-yl]-3-(morpholin-4-ylcarbonyl)-1,4-dihydrothiochromeno[4,3-c]pyrazole 5,5-dioxide], the IC50 worked out at 3550 nM.
The same measure for `O=C(c1nn([C@H]2CCCN(C3CCOCC3)C2)c2c1CS(=O)(=O)c1c(F)cccc1-2)N1CCOCC1` (stereo in doubt) [Example 427, 6-fluoro-3-(morpholin-4-ylcarbonyl)-1-[1-(tetrahydro-2H-pyran-4-yl)piperidin-3-yl]-1,4-dihydrothiochromeno[4,3-c]pyrazole 5,5-dioxide]: 13 nM; for `O=C(c1nn(CCN2CCOCC2)c2c1CS(=O)(=O)c1ccccc1-2)N1CCOCC1` [Example 72, 3-(Morpholin-4-ylcarbonyl)-1-(2-morpholin-4-ylethyl)-1,4-dihydrothiochromeno[4,3-c]pyrazole 5,5-dioxide]: 795 nM.
For the compound `CC1(C)CN(CCN2CCC[C@H](n3nc(C(=O)N4CCOCC4)c4c3-c3ccccc3S(=O)(=O)C4)C2)CCO1` (single isomer, unassigned) [Example 370, 1-{1-[2-(2,2-dimethylmorpholin-4-yl)ethyl]piperidin-3-yl}-3-(morpholin-4-ylcarbonyl)-1,4-dihydrothiochromeno[4,3-c]pyrazole 5,5-dioxide], the IC50 turned out to be 73 nM.
In the case of `O=C(c1nn(C2CCCN(Cc3ccccc3)C2)c2c1CS(=O)(=O)c1ccccc1-2)N1CCOCC1` (stereo not shown) [Example 174, 1-(1-Benzylpiperidin-3-yl)-3-(morpholin-4-ylcarbonyl)-1,4-dihydrothiochromeno[4,3-c]pyrazole 5,5-dioxide] it was 540 nM; in that of `Cc1ccc2c(c1)S(=O)(=O)Cc1c(C(=O)N3CCOCC3)nn(-c3ccccc3)c1-2` [Example 139, 7-Methyl-3-(morpholin-4-ylcarbonyl)-1-phenyl-1,4-dihydrothiochromeno[4,3-c]pyrazole 5,5-dioxide], 1840 nM.
In the case of `Cc1nc2ccc(-n3nc(C(=O)N4CCOCC4)c4c3-c3ccccc3S(=O)(=O)C4)cc2s1` [Example 24, 1-(2-methyl-1,3-benzothiazol-6-yl)-3-(morpholin-4-ylcarbonyl)-1,4-dihydrothiochromeno[4,3-c]pyrazole 5,5-dioxide] it was 662 nM.
The same measure for `O=C(c1nn(C2CCCCC2)c2c1CS(=O)(=O)c1cc(Br)ccc1-2)N1CCOCC1` [Example 128, 7-Bromo-1-cyclohexyl-3-(morpholin-4-ylcarbonyl)-1,4-dihydrothiochromeno[4,3-c]pyrazole 5,5-dioxide]: 691 nM; for `COc1ccc2c(c1)-c1c(c(C(=O)N3CCOCC3)nn1-c1ccccc1)CS2(=O)=O` [Example 113, 8-Methoxy-3-(morpholin-4-ylcarbonyl)-1-phenyl-1,4-dihydrothiochromeno[4,3-c]pyrazole 5,5-dioxide]: 3350 nM; for `O=C(c1nn(-c2cccc(N3CCCC3)c2)c2c1CS(=O)(=O)c1ccccc1-2)N1CCOCC1` [Example 181, 3-(Morpholin-4-ylcarbonyl)-1-(3-pyrrolidin-1-ylphenyl)-1,4-dihydrothiochromeno[4,3-c]pyrazole 5,5-dioxide]: 4950 nM.
`O=C(c1nn(C2CCCNCC2)c2c1CS(=O)(=O)c1ccccc1-2)N1CCOCC1` (stereo not shown) [Example 82]: the IC50 came to 1900 nM.
Regarding `CS(=O)(=O)N1CCC(n2nc(C(=O)N3CCOCC3)c3c2-c2ccccc2S(=O)(=O)C3)CC1` [Example 123, 1-[1-(Methylsulfonyl)piperidin-4-yl]-3-(morpholin-4-ylcarbonyl)-1,4-dihydrothiochromeno[4,3-c]pyrazole 5,5-dioxide], the IC50 came out at 2100 nM.
Turning to `O=C(c1nn(-c2cccc(-c3ccccc3)c2)c2c1CS(=O)(=O)c1ccccc1-2)N1CCOCC1` [Example 157, 1-Biphenyl-3-yl-3-(morpholin-4-ylcarbonyl)-1,4-dihydrothiochromeno[4,3-c]pyrazole 5,5-dioxide], the IC50 came out at 764 nM.
The same measure for `O=C(c1nn(-c2ccc(CO)cc2)c2c1CS(=O)(=O)c1ccccc1-2)N1CCOCC1` [Example 153, {4-[3-(Morpholin-4-ylcarbonyl)-5,5-dioxidothiochromeno[4,3-c]pyrazol-1(4H)-yl]phenyl}methanol]: 1060 nM.
Take `COCCOc1cccc(-n2nc(C(=O)N3CCOCC3)c3c2-c2ccccc2S(=O)(=O)C3)c1` [Example 341, 1-[3-(2-Methoxyethoxy)phenyl]-3-(morpholin-4-ylcarbonyl)-1,4-dihydrothiochromeno[4,3-c]pyrazole 5,5-dioxide]: the IC50 is 726 nM.
`CS(=O)(=O)c1cccc(-n2nc(C(=O)N3CCOCC3)c3c2-c2ccccc2S(=O)(=O)C3)c1` [Example 138, 1-[3-(Methylsulfonyl)phenyl]-3-(morpholin-4-ylcarbonyl)-1,4-dihydrothiochromeno[4,3-c]pyrazole 5,5-dioxide]: the IC50 was 2560 nM.
The same measure for `COC1CCCN(C(=O)c2cccc(-n3nc(C(=O)N4CCOCC4)c4c3-c3ccccc3S(=O)(=O)C4)c2)C1` (stereo not shown) [Example 159, 1-{3-[(3-Methoxypiperidin-1-yl)carbonyl]phenyl}-3-(morpholin-4-ylcarbonyl)-1,4-dihydrothiochromeno[4,3-c]pyrazole 5,5-dioxide]: 246 nM; for `COc1ccc2c(c1)S(=O)(=O)Cc1c(C(=O)N3CCOCC3)nn([C@H]3CCCN(CCN4CCC(F)CC4)C3)c1-2` (single isomer, unassigned) [Example 384, 1-{1-[2-(4-fluoropiperidin-1-yl)ethyl]piperidin-3-yl}-7-methoxy-3-(morpholin-4-ylcarbonyl)-1,4-dihydrothiochromeno[4,3-c]pyrazole 5,5-dioxide]: 19 nM.
The same measure for `O=C(c1nn(C2CCN(CC3CCOC3)C2)c2c1CS(=O)(=O)c1ccccc1-2)N1CCOCC1` (stereo not shown) [Example 303, 3-(Morpholin-4-ylcarbonyl)-1-[1-(tetrahydrofuran-3-ylmethyl)pyrrolidin-3-yl]-1,4-dihydrothiochromeno[4,3-c]pyrazole 5,5-dioxide]: 353 nM.
Turning to `CN1c2c(C(=O)N3CCOCC3)nn(-c3ccccc3)c2-c2ccccc2S1(=O)=O` [Example 488, 4-Methyl-3-(morpholin-4-ylcarbonyl)-1-phenyl-1,4-dihydropyrazolo[4,3-c][1,2]benzothiazine 5,5-dioxide], the IC50 is 3460 nM.
In the case of `O=C(c1nn(C2CCCOC2)c2c1CS(=O)(=O)c1ccccc1-2)N1CCOCC1` (stereo not shown) [Example 99] it was 326 nM.
Turning to `CC1(C)CCCC(n2nc(C(=O)N3CCOCC3)c3c2-c2ccccc2S(=O)(=O)C3)C1` (stereo not shown) [Example 171, 1-(3,3-Dimethylcyclohexyl)-3-(morpholin-4-ylcarbonyl)-1,4-dihydrothiochromeno[4,3-c]pyrazole 5,5-dioxide], the IC50 is 498 nM.
Turning to `CC1COCCN1C(=O)c1nn(-c2ccccc2)c2c1CS(=O)(=O)c1ccccc1-2` (stereo not shown) [Example 338, 3-[(3-Methylmorpholin-4-yl)carbonyl]-1-phenyl-1,4-dihydrothiochromeno[4,3-c]pyrazole 5,5-dioxide], the IC50 worked out at 13900 nM.
For the compound `O=C(c1nn(C2CCC(CN3CCOCC3)CC2)c2c1CS(=O)(=O)c1ccccc1-2)N1CCOCC1` (stereo not shown) [Example 215, 3-(Morpholin-4-ylcarbonyl)-1-[4-(morpholin-4-ylmethyl)cyclohexyl]-1,4-dihydrothiochromeno[4,3-c]pyrazole 5,5-dioxide], the IC50 is 912 nM.
The same measure for `O=C(c1nn(C2CCCN(CCN3CCC(F)CC3)C2)c2c1CS(=O)(=O)c1ccccc1-2)N1CCOCC1` (stereo not shown) [Example 281, 1-{1-[2-(4-Fluoropiperidin-1-yl)ethyl]piperidin-3-yl}-3-(morpholin-4-ylcarbonyl)-1,4-dihydrothiochromeno[4,3-c]pyrazole 5,5-dioxide]: 34 nM; for `COc1ccc2c(c1)S(=O)(=O)Cc1c(C(=O)N3CCOCC3)nn([C@H]3CCCN(CCN4CC(F)(F)C4)C3)c1-2` (single isomer, unassigned) [Example 382, 1-{1-[2-(3,3-difluoroazetidin-1-yl)ethyl]piperidin-3-yl}-7-methoxy-3-(morpholin-4-ylcarbonyl)-1,4-dihydrothiochromeno[4,3-c]pyrazole 5,5-dioxide]: 15 nM.
